Results on 27 compounds are retold here after patent US20110190351A1, “Benzoimidazole Derivatives and Glycogen Synthase Kinase-3 Beta Inhibitors Containing the Same” (Oncotherapy Science, Inc., priority 2008, published 2011).

Molecules are shown by their SMILES.

The assay deals with T1, GSK3beta (Homo sapiens, UniProt P49841).
T1 construct: purchased Invitrogen
T1 sequence (P49841 whole entry): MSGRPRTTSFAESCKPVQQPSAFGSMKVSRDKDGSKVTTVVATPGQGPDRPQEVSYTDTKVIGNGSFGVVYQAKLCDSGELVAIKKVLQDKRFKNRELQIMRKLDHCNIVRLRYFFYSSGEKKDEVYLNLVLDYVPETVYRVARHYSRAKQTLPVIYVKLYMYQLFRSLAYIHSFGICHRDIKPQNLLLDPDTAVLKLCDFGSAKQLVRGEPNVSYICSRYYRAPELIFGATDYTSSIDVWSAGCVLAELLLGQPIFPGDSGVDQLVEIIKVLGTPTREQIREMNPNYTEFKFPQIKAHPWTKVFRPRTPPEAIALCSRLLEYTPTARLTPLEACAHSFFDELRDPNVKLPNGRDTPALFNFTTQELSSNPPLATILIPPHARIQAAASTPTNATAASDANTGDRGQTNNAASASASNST
Nature of the assay: Z'-LYTE kinase assay (FRET, SER/THR 9 peptide). In kind it is biochemical. To be noted: 0.04 ng/mcl GSKbeta (Invitrogen), 2 mcM SER/THR 9 peptide, 15 mcM ATP, 1 hour at room temperature, 1% DMSO. The protocol: GSK3beta activity was measured in the presence or absence of compounds using Z′-LYTE kinase assay (Rodems S M, et al., Assay Drug Dev Technol. 1: 9-19, 2002.) kit with SER/THR 9 peptide (Invitrogen) following the manufacturer's instruction. The Z′-LYTE kinase assay kit employs a fluorescence resonance energy transfer (FRET) between two fluorophores, coumarin and fluorescein, attached to each end of a substrate peptide.
Test compounds were dissolved in DMSO at 12.5 mM and then serially diluted as the DMSO concentration in the assays to be 1%. The serially diluted compounds, 0.04 ng/mcl GSKbeta (Invitrogen) and 2 mcM SER/THR 9 peptide were reacted in a reaction buffer (50 mM HEPES pH 7.5, 0.01% Brij-35, 10 mM MgCl2, 1 mM EGTA, 15 mcM ATP). For 0% phosphorylation control, ATP was omitted from the reaction mixture. For 100% phosphorylation control, SER/THR 9 phosphopeptide was used in place of the SER/THR 9 peptide. Following 1 hour incubation at room temperature, the reaction was stopped by the addition of half assay volume of development solution and further incubated for 1 hour at room temperature. After adding the half assay volume of stop reagent, emission signals of coumarin and fluorescein were measured by Wallac EnVision 2103 multilabel reader (PerkinElmer). The extent of phosphorylation was determined according to the 0% and 100% phosphorylation control samples using the following equation:
C100%=coumarin emission signal of the 100% phosphorylation control C0%=coumarin emission signal of the 0% phosphorylation control F100%=fluorescein emission signal of the 100% phosphorylation control F0%=fluorescein emission signal of the 0% phosphorylation control
IC50 values were calculated by nonlinear four parameter fit using SigmaPlot, version 10.0 (Systat Software, Inc.).
In the case of `CS(=O)(=O)Nc1ccc(NCCNC(=O)c2ccc(O)c3[nH]c(-c4cccs4)nc23)nc1` [Example 69, 7-Hydroxy-N-{2-[5-(methylsulfonamido)pyridin-2-ylamino]ethyl}-2-(thiophen-2-yl)-1H-benzo[d]imidazole-4-carboxamide], the IC50 came to 22 nM.

With `O=C(N[C@@H](Cc1cnc[nH]1)C(=O)O)c1ccc(O)c2[nH]c(-c3cccs3)nc12` [Example 71, (S)-2-[7-Hydroxy-2-(thiophen-2-yl)-1H-benzo[d]imidazole-4-carboxamido]-3-(1H-imidazol-5-yl)propanoic Acid], the midpoint of inhibition, the IC50, lay at 340 nM.

Regarding `NS(=O)(=O)c1ccc(CCNC(=O)c2ccc(O)c3nc(C4CC4)[nH]c23)cc1` [Example 101, 2-Cyclopropyl-4-hydroxy-N-(4-sulfamoylphenethyl)-1H-benzo[d]imidazole-7-carboxamide], the half-maximal inhibitory concentration (IC50) turned out to be 120 nM. For `O=C(NCCCn1ccnc1)c1ccc(O)c2[nH]c(-c3cccs3)nc12` [Example 76, N-[3-(1H-Imidazol-1-yl)propyl]-7-hydroxy-2-(thiophen-2-yl)-1H-benzo[d]imidazole-4-carboxamide] the value was 1.7 nM; for `CN(C)CCNC(=O)c1ccc(O)c2[nH]c(-c3cccs3)nc12` [Example 36, N-[2-(dimethylamino)ethyl]-7-hydroxy-2-(thiophen-2-yl)-1H-benzo[d]imidazole-4-carboxamide], 180 nM; for `O=C(NCCNc1ccccn1)c1ccc(O)c2[nH]c(-c3cccs3)nc12` [Example 11, 7-Hydroxy-N-[2-(pyridin-2-ylamino)ethyl]-2-(thiophen-2-yl)-1H-benzo[d]imidazole-4-carboxamide], 130 nM. For `O=C(N[C@@H](CO)Cc1c[nH]cn1)c1ccc(O)c2[nH]c(-c3cccs3)nc12` [Example 17, (R)-7-Hydroxy-N-[1-hydroxy-3-(1H-imidazol-4-yl)propan-2-yl]-2-(thiophen-2-yl)-1H-benzo[d]imidazole-4-carboxamide] the value was 170 nM; for `O=C(NCCNS(=O)(=O)c1ccncc1)c1ccc(O)c2[nH]c(-c3cccs3)nc12` [Example 40, 7-Hydroxy-N-[2-(pyridine-4-sulfonamido)ethyl]-2-(thiophen-2-yl)-1H-benzo[d]imidazole-4-carboxamide], 390 nM. The value for `O=C(Nc1ccc(O)cc1)c1ccc(O)c2[nH]c(C3CC3)nc12` [Example 91] was 400 nM; that for `CC(C)NCCCNC(=O)c1ccc(O)c2[nH]c(-c3cccs3)nc12` [Example 43, N-[3-(Isopropylamino)propyl]-7-hydroxy-2-(thiophen-2-yl)-1H-benzo[d]imidazole-4-carboxamide] was 220 nM; that for `O=C(Nc1cc(O)ccc1C(=O)NC1CCCNC1)c1cccs1` (stereo not drawn) [Example 122, N-(5-hydroxy-2-(piperidin-3-ylcarbamoyl)phenyl)thiophene-2-carboxamide] was 8100 nM. Consider `O=C(NCCCC1C=NNC1=O)c1ccc(O)c2[nH]c(-c3ccco3)nc12` (stereo not drawn) [Example 79], for which the IC50 worked out at 30 nM. For `O=C(NCc1ccc(O)c(O)c1)c1ccc(O)c2[nH]c(-c3cccs3)nc12` [Example 37, N-(3,4-Dihydroxybenzyl)-7-hydroxy-2-(thiophen-2-yl)-1H-benzo[d]imidazole-4-carboxamide] the value was 38 nM; for `Cn1cncc1CCNC(=O)c1ccc(O)c2[nH]c(-c3cccs3)nc12` [Example 35, 7-Hydroxy-N-[2-(1-methyl-1H-imidazol-5-yl)ethyl]-2-(thiophen-2-yl)-1H-benzo[d]imidazole-4-carboxamide], 130 nM. For `NS(=O)(=O)c1ccc(CCNC(=O)c2ccc(O)c3[nH]c(-c4cccs4)nc23)cc1` [Example 21, 7-Hydroxy-N-(4-sulfamoylphenethyl)-2-(thiophen-2-yl)-1H-benzo[d]imidazole-4-carboxamide] the value was 280 nM. For `O=C(/C=C/c1cnc[nH]1)Nc1ccc(O)c2[nH]c(-c3cccs3)nc12` [Example 120] the value was 3000 nM; for `O=C(NCCc1ncc[nH]1)c1ccc(O)c2[nH]c(-c3cccs3)nc12` [Example 62, N-[2-(1H-Imidazol-2-yl)ethyl]-7-hydroxy-2-(thiophen-2-yl)-1H-benzo[d]imidazole-4-carboxamide], 260 nM. `NC(=O)c1ccc(OCCNC(=O)c2ccc(O)c3[nH]c(-c4cccs4)nc23)nc1` [Example 49, N-[2-(5-Carbamoylpyridin-2-yloxy)ethyl]-7-hydroxy-2-(thiophen-2-yl)-1H-benzo[d]imidazole-4-carboxamide] had an IC50 of 73 nM. The value for `CC(=O)NCCNC(=O)c1ccc(O)c2[nH]c(-c3cccs3)nc12` [Example 42, N-(2-Acetamidoethyl)-7-hydroxy-2-(thiophen-2-yl)-1H-benzo[d]imidazole-4-carboxamide] was 74 nM; that for `CC(=O)Nc1ccc(NCCNC(=O)c2ccc(O)c3[nH]c(-c4cccs4)nc23)nc1` [Example 70, N-[2-(5-Acetamidopyridin-2-ylamino)ethyl]-7-hydroxy-2-(thiophen-2-yl)-1H-benzo[d]imidazole-4-carboxamide] was 81 nM.

On to `O=C(NCCc1ccc(O)c(O)c1)c1ccc(O)c2[nH]c(-c3ccco3)nc12` [Example 80, N-(3,4-Dihydroxyphenethyl)-2-(furan-2-yl)-7-hydroxy-1H-benzo[d]imidazole-4-carboxamide], for which the IC50 was 19 nM. The value for `O=C(NCC(O)CO)c1ccc(O)c2nc(C3CC3)[nH]c12` (stereo not drawn) [Example 97, 2-Cyclopropyl-N-(2,3-dihydroxypropyl)-4-hydroxy-1H-benzo[d]imidazole-7-carboxamide] was 150 nM. The value for `COC(=O)C(CO)NC(=O)c1ccc(O)c2[nH]c(-c3cccs3)nc12` (stereo not drawn) [Example 15, Methyl 3-Hydroxy-2-[7-hydroxy-2-(thiophen-2-yl)-1H-benzo[d]imidazole-4-carboxamido]propanoate] was 22 nM; that for `NS(=O)(=O)c1ccc(CNC(=O)c2ccc(O)c3[nH]c(-c4cccs4)nc23)cc1` [Example 8, 7-Hydroxy-N-(4-sulfamoylbenzyl)-2-(thiophen-2-yl)-1H-benzo[d]imidazole-4-carboxamide] was 52 nM; that for `O=C(CCc1cnc[nH]1)Nc1ccc(O)c2[nH]c(-c3cccs3)nc12` [Example 121, N-(7-hydroxy-2-(thiophen-2-yl)-1H-benzo[d]imidazol-4-yl)-3-(1H-imidazol-5-yl)propanamide] was 1700 nM. The value for `O=C(NCCCNCCO)c1ccc(O)c2[nH]c(-c3cccs3)nc12` [Example 12, 7-Hydroxy-N-[3-(2-hydroxyethylamino)propyl]-2-(thiophen-2-yl)-1H-benzo[d]imidazole-4-carboxamide] was 180 nM.

`Nc1ccc(CCNC(=O)c2ccc(O)c3nc(-c4ccccc4)[nH]c23)cc1` [Example 93, N-(4-Aminophenethyl)-4-hydroxy-2-phenyl-1H-benzo[d]imidazole-7-carboxamide]: the IC50 came out at 400 nM.
